# According to patent US20130149250A1, “HYPERPOLARIZED AGENTS FOR MRI CHARACTERIZATION OF REDOX SYSTEMS IN VIVO” (The Regents of the University of California, priority 2011, published 2013):
# “Also recorded” adds a separate entry of the source.
# Experiments:
# [1] = test system: TRAMP tumors; details: TRAMP mice, PET 50 minutes post injection
# Protocol: FDG-PET: PET scans were performed on a small animal PET/CT scanner (Inveon, Siemens Healthcare, Malvern, Pa.). Mice were fasted overnight, anesthetized, and injected intravenously with 150-170 uCi FDG in 0.1-0.2 mL saline. PET images were acquired 50 minutes post injection in one 600 second frame. CT images were acquired in 120 projections of continuous rotation to cover 220° with x-ray tube operating at 80 kVp, 0.5 mA, and 175 ms exposure time. The matrix size of the reconstructed CT images was 512×512×662 with an isotropic voxel size of 0.191×0.191×0.191 mm^3 PET images were reconstructed using a manufacturer-provided ordered subsets expectation maximization (OS-EM) algorithm resulting in a 128×128×159 matrices with a voxel size of 0.776×0.776×0.796 mm^3 ROIs were drawn in both the tumors and surrounding tissue to calculate relative tumor signals.
# [2] = test system: MCD mouse liver; assay: HP DHA 13C MRSI of liver in methionine choline deficient (MCD) diet NAFLD mouse model; format: in vivo
# Protocol: Prior to and post diet, high-resolution T2 and fat-water imaging was conducted at 14 T using a Varian WB600 micro-imager and 40 mm 1H millipede coil (Varian Instruments, Palo Alto, Calif.). Lipid percentage maps were calculated from fat and water images acquired using a conventional spin-echo sequence using the Dixon method. 350 μL of hyperpolarized DHA was injected each mouse (n=4) at baseline and 2 weeks of MCD diet using a Hypersense (Oxford Instruments). 13C MRSI data was acquired using an EPSI readout, variable flip angle scheme, matrix size 16×8×8 and final voxel resolution of 6 mm isotropic on a 3 T GE MRI (GE Healthcare, Waukesha, Wis.) equipped with a multinuclear package and dual-tuned 1H-^13C imaging coil. […] Ratios of HP DHA and VitC were calculated from the peak integrals in 3D MRSI data. Mice were then sacrificed and liver tissue was sectioned for staining with hematoxylin and eosin (H&E, structure) and Oil Red (lipid presence). Livers of normal mice were used for histologic comparison.
# [3] = DNP hyperpolarization (HyperSense, OX063 trityl radical): build-up and polarization; format: physicochemical; details: for Percent Polarization: DNP, 15 mM OX063; for Percent Polarization / Buildup Constant: mean±SD; for Buildup Constant: solid-state build-up constant
# [4] = 11.7 T NMR studies (T1 of hyperpolarized ascorbates); format: physicochemical; details: spin-lattice relaxation of C1 carbon at 11.7 T; mean±SD
# Protocol: NMR studies were performed on an 11.7 T Varian NOVA spectrometer (125 MHz ^13C, Varian Instruments) using a 10 mm ^15N/^31P/^13C broadband direct detect probe. Thermal and dynamic hyperpolarized spectra for [1-^13C] DHA and [1-^13C] Vitamin C were obtained as previously described, and used to calculate T1's and signal enhancements. For NMR studies of the reduction of [1-^13C] DHA to [1-^13C] Vitamin C, hyperpolarized [1-^13C] DHA was reacted with an excess of sodium cyanoborohydride (NaBH3CN).
# (§1) In vitro methods to interrogate redox chemistry have relied on designer redox-sensitive fluorescent proteins (yellow- or green fluorescent protein) incorporating an artificial dithiol-disulfide pair, or on detection of ROS themselves via chemical switching. In general, fluorescent probes have limited clinical translation given poor tissue penetration; making MR-compatible hyperpolarized ^13C probes an attractive alternative. […] The material was polarized by using a DNP approach and dissolved with a hot water/EDTA solution, with T1's calculated as previously described. […] Vitamin C carbons are tabulated at both 11.7 T and 3 T, with the longest recorded T1 that of [1-^13C] […] Vitamin C were measured as 5.9±0.5% and 3.6±0.1% respectively, representing signal enhancements on the order of approximately 24,000 and 15,000-fold relative to thermal equilibrium at 3 T. […]
# [5] = test system: TRAMP tumors; assay: HP [1-13C] DHA 3D MRSI in TRAMP mice (Example 4); format: in vivo, mouse
# Excerpt: Hyperpolarization and dissolution of [1-^13C] DHA: [1-^13C] DHA dimer was polarized and dissolved.
# [6] = test system: rat brains; details: in vivo
# Protocol: (§2) The RF coil used in these experiments was a dual-tuned ^1H-^13C coil with a quadrature ^13C channel and linear ^1H channel construction used in ^13C mouse imaging studies. ^13C MRSI studies were carried out as previously published. 350 μl (mice) or 2 mL (rats) of a hyperpolarized 15 mM [1-^13C] DHA solution were injected similar to previously described methods for [1-^13C]pyruvate. Similar experiments were performed on a set of normal mice using hyperpolarized [1-^13C] Vitamin C at 50 mM.
# (§3) Tissues with high exposure to environmental toxins, namely the liver, kidney and lungs, are known to be rich in GSH and were considered the most likely source for the hyperpolarized [1-^13C] Vitamin C signal observed in vivo. In addition, a contribution from highly glycolytic tissues was anticipated, given the rapid transport properties of dehydroascorbate. Analogous to experiments performed previously using hyperpolarized [1-^13C]pyruvate, 3D MRSI studies were conducted on a series of normal mice (n=3), TRAMP mice (n=3), and rats (n=3) using a dual-tuned RF coil.
# [7] = test system: TRAMP mice; details: mouse, in vivo
# Protocol: as §2, §3
# [8] = test system: normal mice; details: mouse, in vivo
# Protocol: as §2, §3
# [9] = test system: normal mice; assay: Dynamic 13C MR spectroscopy after injection of hyperpolarized probe in normal mice; format: in vivo, mouse
# Protocol: as §2
# Evidence of in vivo transformation was determining having obtained data validating hyperpolarized [1-^13C] DHA as a redox probe. The transport of DHA in vivo occurs by a mechanism analogous to that of glucose, by facilitated diffusion using GLUT1, GLUT3, and GLUT4. Since glucose is known to compete with the uptake of DHA, in vivo experiments were performed on animals (mice and rats) fasted overnight. […] Dynamic MRSI studies were carried out as previously published. 350 μl of a hyperpolarized 15 mM [1-^13C] DHA solution were injected similar to previously described methods for [1-^13C] pyruvate, in normal mice with a ^13C urea phantom present for chemical shift reference. In a separate set of normal mice, similar experiments were performed using hyperpolarized [1-^13C] Vitamin C at a slightly higher concentration, 50 mM. […] DHA in a normal mouse. The DHA resonance at 174 ppm reached a maximum at 19±1.7 secs post injection. […] Vitamin C in vivo. This chemical shift was confirmed both in vitro at neutral pH using ^13C urea as a reference, as well as in vivo with hyperpolarized [1-^13C] Vitamin C itself injected in a separate animal.
# [10] = T1 studies of hyperpolarized ascorbates on a 3 T MRI scanner; format: physicochemical; details: spin-lattice relaxation of C1 carbon at 3 T; mean±SD
# Protocol: as §2, §1
smiles,measurement,setting,value
"O=C[C@H]([18F])[C@@H](O)[C@H](O)[C@H](O)CO [FDG, 2-18F-2-deoxy-D-glucose]",18F signal in regions of tumor relative to surrounding regions,[1],6.8±3.6
"O=C1C(=O)[13C](=O)O[C@@H]1[C@@H](O)CO [[1-^13C] DHA, [1-^13C] dehydroascorbate]",VitC/DHA ratio,[2]; after 2 weeks on MCD diet,0.46±0.1
same,VitC/VitC+DHA,[2]; after 2 weeks on MCD diet,0.30±0.5
same,decrease in the VitC/DHA ratio from baseline,"[2]; after 2 weeks on MCD diet, P=0.005",92%
same,decrease in the VitC/VitC+DHA ratio from baseline,"[2]; after 2 weeks on MCD diet, P=0.01",48%
same,VitC/DHA ratio,[2]; baseline,0.98±0.09
same,VitC/VitC+DHA,[2]; baseline (normal liver),0.49±02
same,Percent Polarization,[3],5.9±0.5%
same,signal enhancement relative to thermal equilibrium,[3]; at 3 T,"approximately 24,000 fold"
same,Buildup Constant,[3],1120 ± 50 s
same,11.7T T1,[4],20.5 ± 0.9 s
same,Total HP 13C in tumors relative to surrounding tissue,[5]; TRAMP mice,2.1±0.4
same,tumor HP VitC/[VitC+DHA] relative to surrounding tissue,[5]; TRAMP mice,7.0±2.3
same,HP VitC (ratio of VitC to total HP signal),[5]; TRAMP tumors (N=4),0.23±0.03
same,HP VitC (ratio of VitC to total HP signal),"[5]; benign prostate, P=0.001",0.06±0.03
same,HP VitC (ratio of VitC to total HP signal),"[5]; surrounding tissues, P=0.005",0.05±0.02
same,VitC/Total Carbon,[6],0.51±0.1
same,VitC/Total Carbon,[7],0.29±0.09
same,Vitamin C signal,[8],no Vitamin C signal was observed
same,time of maximum of DHA resonance (174 ppm) post injection,"[9]; mouse, in vivo",19 ± 1.7 s
same,"time of maximum of metabolite resonance (177.8 ppm, [1-13C] Vitamin C)","[9]; mouse, in vivo",29 ± 1.7 s
"O=[13C]1O[C@H]([C@@H](O)CO)C(O)=C1O [[1-^13C] Vitamin C, [1-^13C] ascorbic acid]",3T T1,[10],29.2 ± 2.5 s
same,Percent Polarization,[3],3.6±0.1%
same,Buildup Constant,[3],1756 ± 97 s
same,11.7T T1,[4],16.0 ± 0.8 s
same,in vivo oxidation of hyperpolarized [1-13C] Vitamin C to [1-13C] DHA,"[9]; 50 mM hyperpolarized [1-13C] Vitamin C, normal mice",trace oxidation; also recorded: trace conversion
